Experimental data: patent US7575909B2, “Oxidoreductase from pichia capsulata” (IEP GmbH, priority 2003, dated 2009)

Columns and labels:
[1] = test system: oxidoreductase according to the invention; assay: Substrate spectrum (relative enzyme activity with different substrates); assay type: biochemical, Pichia capsulata; conditions: activity with ethyl-4-chloroacetoacetate = 100%
Protocol: Incubation lasted for about 2 to 3 min, thereupon 100 μl of a substrate solution (100 mM ethyl-4-chloro-3-oxobutanoate were added.
The substrate spectrum of the oxidoreductase according to the invention was determined by measuring the enzyme activity with a number of ketones, oxoacids and esters thereof. […] The activity with ethyl-4-chloroacetoacetate was equalled to 100% and all the other substrates were set in relation thereto.

[2] = test system: oxidoreductase according to the invention; assay: Enantiomeric excess of the alcohol formed from selected substrates (GC); assay type: biochemical, Pichia capsulata; conditions: 24 h
Protocol: For the determination of the ee-value, the following reaction batch was used for selected substrates.
The batches for ee-determination were extracted with chloroform after 24 h and the enantiomeric excess of the resulting alcohol was determined via GC.

[3] = test system: recombinant oxidoreductase from Pichia capsulata; assay: Preparative conversions with recombinant oxidoreductase; assay type: biochemical; conditions: for share of the substrate used that was reduced: after 24 h at room temperature, isopropanol as cosubstrate, NAD; for enantiomeric excess of the recovered product: preparative batch, 24 h at room temperature
Protocol: For the preparative batch, a mixture of […] of a buffer (100 mM TEA, pH=7, 1 mM ZnCl2, 10% glycerol), 4 1 isopropanol, 4 1 4-chloroacetoacetate, 4 g NAD and 3.6 million U of recombinant oxidoreductase from Pichia capsulata was incubated for 24 h at room temperature under constant mixing. […] Subsequently, the reaction mixture was extracted with ethyl acetate, the solvent was removed by means of a rotary evaporator and the raw product was distilled.
For the preparative batch, a mixture of 164 ml of a buffer (100 mM TEA, pH=7, 1 mM ZnCl2, 20% glycerol), 16 ml isopropanol, 20 g 2-chloro-1-(3-chlorophenyl)ethane-1-one dissolved in 20 ml methyl tert-butyl ether (MTBE), 10 mg NAD and 20,000 U of recombinant oxidoreductase from Pichia capsulata was incubated for 24 h at room temperature under constant mixing. […] Subsequently, the reaction mixture was extracted with ethyl acetate, and the solvent was removed using the rotary evaporator.

In the case of `CC(=O)Cc1ccccc1` [1-Phenyl-2-propanone], the Relative activity % [1] is reported as 24% and the Stereoselectivity ([2]; S-alcohol in excess) is reported as 97% S.
With `CCC(C)=O` [2-Butanone] the Relative activity % [1] was 99% and the Stereoselectivity ([2]; S-alcohol in excess) was 50% S.
In the case of `O=C(CCl)c1cccc(Cl)c1` [2-Chloro-1-(3-chlorophenyl)ethane-1-one], the Relative activity % [1] is reported as 21%, the Stereoselectivity ([2]; R-alcohol in excess) is reported as 100% R and the “share of the substrate used that was reduced” value [3] is reported as 96%.
Work on `CCCCCCC(C)=O` [2-Octanone] yielded a Relative activity % [1] of 88% and a Stereoselectivity ([2]; S-alcohol in excess) of 100% S.
`O=C(O)C(=O)Cc1ccccc1` [2-Oxo-3-phenyl propionic acid] showed a Relative activity % [1] of 0%.
`CCC(=O)C(=O)O` [2-Oxobutanoic acid] gave a Relative activity % [1] of 0%.
For `CCCC(=O)C(=O)O` [2-Oxovaleric acid], the Relative activity % [1] was 0%.
`CCCCCC(=O)CC` [3-Octanone] gave a Relative activity % [1] of 30%.
`CC(=O)CCO` [4-Hydroxy-2-butanone] gave a Relative activity % [1] of 99% and a Stereoselectivity ([2]; S-alcohol in excess) of 90% S.
`O[C@@H](CCl)c1cccc(Cl)c1` [(R)-2-chloro-1-(3-chlorophenyl)ethane-1-ol] was tested, and the “enantiomeric excess of the recovered product” value [3] was 100%.
In the case of `CC(=O)c1ccccc1` [Acetophenone], the Relative activity % [1] is reported as 4%.
Compound `CCCCCCCC(=O)c1ccccc1` [Caprylophenone] has a Relative activity % [1] of 0%.
`COC(=O)CCCCC(=O)CC(=O)OC` [Dimethyl-3-oxo-1,8-octandioic acid] gave a Relative activity % [1] of 3.5%.
For `CCOC(=O)CC(C)=O` [Ethyl acetoacetate], the Relative activity % [1] was 100% and the Stereoselectivity ([2]; S-alcohol in excess) was 99% S.
Compound `CCOC(=O)C(=O)c1ccccc1` [Ethyl phenyl glyoxylate] has a Relative activity % [1] of 5.2% and a Stereoselectivity ([2]; R-alcohol in excess) of 100% R.
In the case of `CCOC(=O)C(C)=O` [Ethyl pyruvate], the Relative activity % [1] is reported as 10% and the Stereoselectivity ([2]; S-alcohol in excess) is reported as 100% S.
`CCOC(=O)C(=O)CCc1ccccc1` [Ethyl-2-oxo-4-phenylbutanoic acid] showed a Relative activity % [1] of 76% and a Stereoselectivity ([2]; S-alcohol in excess) of 95% S.
`CCCC(=O)C(=O)OCC` [Ethyl-2-oxovaleriate] was tested, and the Relative activity % [1] was 41% and the Stereoselectivity ([2]; S-alcohol in excess) was 97% S.
`CCOC(=O)CC(=O)CC` [Ethyl-3 oxovaleriate] showed a Relative activity % [1] of 67%.
In the case of `CCOC(=O)CC(=O)CCl` [Ethyl-4-chloroacetoacetate], the Relative activity % [1] is reported as 100%, the Stereoselectivity ([2]; R-alcohol in excess) is reported as 99% R and the “share of the substrate used that was reduced” value [3] is reported as 99%.
`CCOC(=O)CCCCC(=O)CCCl` [Ethyl-8-chloro-6-oxooctanoic acid] gave a Relative activity % [1] of 20% and a Stereoselectivity ([2]; R-alcohol in excess) of 100% R.
In the case of `COC(=O)CC(C)=O` [Methyl acetoacetate], the Relative activity % [1] is reported as 150% and the Stereoselectivity ([2]; S-alcohol in excess) is reported as 97% S.
`CCOC(=O)C[C@@H](O)CCl` [ethyl-(R)-4-chloro-3-hydroxybutanoate] was tested, and the “enantiomeric excess of the recovered product” value [3] was 99%.
